Source: ChEMBL document CHEMBL2073896, “Bromocriptine transcriptionally activates the multidrug resistance gene (pgp2/mdr1b) by a novel pathway” (J Biol Chem, 1997)

Experiments:
Format in all cases: functional, cell-based
[1] = target: ATP-dependent translocase ABCB1 (Rattus norvegicus, UniProt P43245); assay: TP_TRANSPORTER: Luciferase assay in H35 hepatoma cells
[2] = target: Multidrug resistance protein 1a (Rattus norvegicus) (UniProt Q6PSM0); assay: TP_TRANSPORTER: Northern blot from H35 hepatoma cells
[3] = target: Multidrug resistance protein 1a (Rattus norvegicus) (UniProt Q6PSM0); assay: TP_TRANSPORTER: Western blot, H35 hepatoma cells

Sequence of Multidrug resistance protein 1a (Rattus norvegicus) (Q6PSM0 as listed by the source): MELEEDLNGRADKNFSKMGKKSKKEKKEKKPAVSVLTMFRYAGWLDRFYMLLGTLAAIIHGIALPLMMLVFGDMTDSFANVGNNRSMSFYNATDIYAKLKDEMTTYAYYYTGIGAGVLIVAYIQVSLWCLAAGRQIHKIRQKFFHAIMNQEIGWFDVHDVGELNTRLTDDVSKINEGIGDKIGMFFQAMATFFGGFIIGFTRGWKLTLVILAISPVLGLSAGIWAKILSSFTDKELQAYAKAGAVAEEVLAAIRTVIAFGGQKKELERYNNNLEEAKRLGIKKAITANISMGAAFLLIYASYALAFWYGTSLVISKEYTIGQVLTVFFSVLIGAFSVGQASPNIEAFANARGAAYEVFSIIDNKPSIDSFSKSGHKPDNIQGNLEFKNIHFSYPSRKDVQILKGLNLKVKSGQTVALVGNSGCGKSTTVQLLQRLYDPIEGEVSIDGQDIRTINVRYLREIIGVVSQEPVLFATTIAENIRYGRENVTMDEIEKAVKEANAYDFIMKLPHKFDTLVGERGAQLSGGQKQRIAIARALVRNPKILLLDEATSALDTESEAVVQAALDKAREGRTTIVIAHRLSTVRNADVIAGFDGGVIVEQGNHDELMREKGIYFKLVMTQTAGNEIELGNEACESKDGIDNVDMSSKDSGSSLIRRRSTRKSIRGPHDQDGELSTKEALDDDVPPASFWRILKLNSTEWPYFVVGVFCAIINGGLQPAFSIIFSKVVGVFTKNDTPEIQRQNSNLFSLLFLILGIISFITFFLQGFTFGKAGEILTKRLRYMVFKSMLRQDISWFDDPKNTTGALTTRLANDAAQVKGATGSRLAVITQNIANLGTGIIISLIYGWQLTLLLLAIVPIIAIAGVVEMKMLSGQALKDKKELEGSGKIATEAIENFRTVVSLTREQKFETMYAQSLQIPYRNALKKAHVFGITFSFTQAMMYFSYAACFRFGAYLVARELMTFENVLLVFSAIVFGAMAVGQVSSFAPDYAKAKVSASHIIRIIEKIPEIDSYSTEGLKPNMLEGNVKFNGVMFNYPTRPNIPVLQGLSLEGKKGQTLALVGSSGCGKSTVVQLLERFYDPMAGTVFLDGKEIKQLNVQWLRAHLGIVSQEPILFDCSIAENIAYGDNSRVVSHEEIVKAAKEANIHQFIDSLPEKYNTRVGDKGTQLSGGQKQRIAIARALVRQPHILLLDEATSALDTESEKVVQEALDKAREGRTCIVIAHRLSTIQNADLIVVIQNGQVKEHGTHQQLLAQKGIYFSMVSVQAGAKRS
Sequence of ATP-dependent translocase ABCB1 (P43245 whole entry): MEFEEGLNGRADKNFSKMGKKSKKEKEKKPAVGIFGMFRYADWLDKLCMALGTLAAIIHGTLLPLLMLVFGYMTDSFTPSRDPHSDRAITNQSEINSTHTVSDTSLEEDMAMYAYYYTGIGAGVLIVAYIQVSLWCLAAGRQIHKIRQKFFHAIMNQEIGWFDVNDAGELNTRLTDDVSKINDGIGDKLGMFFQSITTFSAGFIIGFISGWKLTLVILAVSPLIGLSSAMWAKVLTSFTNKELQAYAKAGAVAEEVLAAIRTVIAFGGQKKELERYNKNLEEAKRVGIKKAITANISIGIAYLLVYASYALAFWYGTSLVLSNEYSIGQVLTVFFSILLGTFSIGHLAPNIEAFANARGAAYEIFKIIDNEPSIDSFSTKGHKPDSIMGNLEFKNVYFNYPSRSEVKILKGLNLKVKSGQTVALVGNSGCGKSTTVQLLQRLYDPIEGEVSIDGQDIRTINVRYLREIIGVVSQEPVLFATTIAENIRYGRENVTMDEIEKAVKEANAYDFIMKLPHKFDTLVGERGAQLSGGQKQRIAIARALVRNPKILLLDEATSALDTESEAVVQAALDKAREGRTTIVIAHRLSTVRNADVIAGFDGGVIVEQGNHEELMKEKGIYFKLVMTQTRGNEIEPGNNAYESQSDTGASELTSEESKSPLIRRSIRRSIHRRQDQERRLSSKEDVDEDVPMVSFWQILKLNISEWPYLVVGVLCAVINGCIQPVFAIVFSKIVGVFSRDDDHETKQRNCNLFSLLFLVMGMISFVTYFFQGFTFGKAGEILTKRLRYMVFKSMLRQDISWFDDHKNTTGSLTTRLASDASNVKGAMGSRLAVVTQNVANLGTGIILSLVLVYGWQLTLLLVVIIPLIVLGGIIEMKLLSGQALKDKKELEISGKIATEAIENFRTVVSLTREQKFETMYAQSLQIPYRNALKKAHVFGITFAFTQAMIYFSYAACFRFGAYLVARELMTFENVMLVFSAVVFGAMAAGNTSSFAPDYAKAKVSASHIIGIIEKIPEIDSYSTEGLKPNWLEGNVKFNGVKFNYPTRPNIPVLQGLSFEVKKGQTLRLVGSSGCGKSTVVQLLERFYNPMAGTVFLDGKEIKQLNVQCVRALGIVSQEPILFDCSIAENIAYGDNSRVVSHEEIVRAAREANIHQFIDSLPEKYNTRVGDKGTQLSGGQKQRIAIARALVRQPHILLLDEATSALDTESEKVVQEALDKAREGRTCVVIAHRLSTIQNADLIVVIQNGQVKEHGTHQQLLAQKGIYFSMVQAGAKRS

`CCCN1CCC[C@@H]2Cc3n[nH]cc3C[C@H]21` [QUINPIROLE] was tested, and the Activity [1] was “inducer [+]”.
For `CC(C)C[C@H]1C(=O)N2CCC[C@H]2[C@]2(O)O[C@](NC(=O)[C@@H]3C=C4c5cccc6[nH]c(Br)c(c56)C[C@H]4N(C)C3)(C(C)C)C(=O)N12`, the Activity [2] was “inducer [+]” and the Activity [3] was “inducer [+]”.
`CCCN1CCc2cccc3c2[C@H]1Cc1ccc(O)c(O)c1-3.Cl` was tested, and the Activity [1] was “inducer [+]”.
